From patent US10954219B2, “1,3-benzodioxole derivative” (DAIICHI SANKYO COMPANY, LIMITED, priority 2014, dated 2021)

Legend:
[1] = biological target: PRC2-EZH1 (WT EZH1) (Homo sapiens, UniProt Q92800); assay: EZH1 methyltransferase inhibitory activity evaluation
Procedure: EZH1 Methyltransferase Inhibitory Activity Evaluation
(§1) Then, the residual radioactivity was measured using TopCount NXT HTS (PerkinElmer, Inc., model C384V01).

[2] = biological target: T1, PRC2-EZH2 (WT EZH2) (Homo sapiens, UniProt Q15910); assay: EZH2 methyltransferase inhibitory activity evaluation; type: biochemical; details: PRC2-EZH2, biotin-H3 peptide, 3H-SAM, 2 hours
T1 construct: made in house
T1 sequence (Q15910 whole entry): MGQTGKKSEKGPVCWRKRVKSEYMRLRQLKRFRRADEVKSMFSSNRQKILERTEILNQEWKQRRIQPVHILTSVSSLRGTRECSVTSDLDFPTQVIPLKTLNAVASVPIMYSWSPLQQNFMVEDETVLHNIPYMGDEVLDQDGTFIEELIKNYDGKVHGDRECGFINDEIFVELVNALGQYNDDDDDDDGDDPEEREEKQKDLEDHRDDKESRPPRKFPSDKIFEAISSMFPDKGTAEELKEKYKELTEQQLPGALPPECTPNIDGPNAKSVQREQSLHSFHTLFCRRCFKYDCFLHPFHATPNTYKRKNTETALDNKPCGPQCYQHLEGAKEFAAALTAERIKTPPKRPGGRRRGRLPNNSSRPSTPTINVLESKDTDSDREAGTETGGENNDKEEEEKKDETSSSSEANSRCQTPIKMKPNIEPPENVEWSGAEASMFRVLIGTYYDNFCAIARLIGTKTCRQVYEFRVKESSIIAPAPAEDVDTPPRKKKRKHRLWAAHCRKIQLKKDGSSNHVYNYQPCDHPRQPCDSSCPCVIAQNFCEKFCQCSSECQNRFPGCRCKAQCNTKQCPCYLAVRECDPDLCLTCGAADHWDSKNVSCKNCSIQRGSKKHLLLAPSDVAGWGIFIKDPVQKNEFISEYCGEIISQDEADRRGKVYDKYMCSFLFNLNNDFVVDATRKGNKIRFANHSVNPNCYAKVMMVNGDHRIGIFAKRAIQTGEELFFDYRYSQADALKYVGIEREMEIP
T1 sequence (O75530 whole entry partner): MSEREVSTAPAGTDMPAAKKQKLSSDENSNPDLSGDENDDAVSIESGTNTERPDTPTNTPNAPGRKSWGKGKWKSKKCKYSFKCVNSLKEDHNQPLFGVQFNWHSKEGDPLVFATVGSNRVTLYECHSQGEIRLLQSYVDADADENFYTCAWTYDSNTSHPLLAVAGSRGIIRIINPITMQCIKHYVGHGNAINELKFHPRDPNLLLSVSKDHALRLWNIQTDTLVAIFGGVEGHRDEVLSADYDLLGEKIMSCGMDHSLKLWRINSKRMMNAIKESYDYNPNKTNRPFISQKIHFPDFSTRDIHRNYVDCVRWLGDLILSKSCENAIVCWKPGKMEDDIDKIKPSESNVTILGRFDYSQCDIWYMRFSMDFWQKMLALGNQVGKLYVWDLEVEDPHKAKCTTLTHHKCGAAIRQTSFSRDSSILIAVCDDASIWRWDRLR
T1 sequence (Q15022 whole entry partner): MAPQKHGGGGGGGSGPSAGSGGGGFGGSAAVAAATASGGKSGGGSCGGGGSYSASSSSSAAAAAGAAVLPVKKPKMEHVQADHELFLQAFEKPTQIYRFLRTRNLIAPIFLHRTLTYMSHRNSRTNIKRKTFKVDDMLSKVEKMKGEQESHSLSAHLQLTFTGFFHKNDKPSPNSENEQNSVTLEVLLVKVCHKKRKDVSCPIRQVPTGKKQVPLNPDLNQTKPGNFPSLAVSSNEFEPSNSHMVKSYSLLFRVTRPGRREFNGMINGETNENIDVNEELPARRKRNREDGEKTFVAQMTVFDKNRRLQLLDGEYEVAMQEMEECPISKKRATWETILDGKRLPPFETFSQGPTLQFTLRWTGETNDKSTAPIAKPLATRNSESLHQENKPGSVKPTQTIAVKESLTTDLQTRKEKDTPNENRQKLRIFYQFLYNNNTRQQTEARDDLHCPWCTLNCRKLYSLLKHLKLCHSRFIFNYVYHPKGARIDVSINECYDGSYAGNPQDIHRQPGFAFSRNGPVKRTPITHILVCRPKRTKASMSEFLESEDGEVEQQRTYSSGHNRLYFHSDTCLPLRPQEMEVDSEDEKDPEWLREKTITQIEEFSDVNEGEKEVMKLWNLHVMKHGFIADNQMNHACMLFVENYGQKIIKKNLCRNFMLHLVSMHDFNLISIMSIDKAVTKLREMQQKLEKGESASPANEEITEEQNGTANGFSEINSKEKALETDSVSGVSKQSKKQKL
Procedure: EZH2 Methyltransferase Inhibitory Activity Evaluation
as §1

[3] = system: Intracellular H3K27me3 in HCT116 cells; assay: Intracellular H3K27me3 inhibitory activity evaluation; type: cell-based; details: Homo sapiens, HCT-116, 72 h, 3 days, AlphaLISA, read-out: Test Example 3 H3K27me3 inhibition (HCT116) IC50
Procedure: The HCT116 cells were purchased from American Type Culture Collection (ATCC). […] Intracellular H3K27me3 was quantified using AlphaLISA H3K27me3 Cellular Detection Kit (PerkinElmer, Inc., #AL722F). The cells thus cultured in each well were washed with 100 μL of PBS. Cell-Histone Lysis buffer diluted 6-fold with PBS was added thereto at 80 μL/well, and the plate was then incubated at room temperature for 15 minutes while shaken. Then, Cell-Histone Extraction buffer was added thereto at 40 μL/well, and the plate was incubated at room temperature for 10 minutes while shaken. […] An AlphaLISA anti-H3K27me3 Acceptor beads/Biotinylated Antibody anti-Histone H3 (C-ter) mixed solution was added thereto at 3.3 μL/well, and the plate was incubated at room temperature for 60 minutes. Then, Streptavidin (SA)-coated Donor beads were added thereto at 3.3 μL/well, and the plate was incubated at room temperature for 30 minutes with the plate shielded from light.

PRC2-EZH1 (WT EZH1), sequence (Q92800 whole entry): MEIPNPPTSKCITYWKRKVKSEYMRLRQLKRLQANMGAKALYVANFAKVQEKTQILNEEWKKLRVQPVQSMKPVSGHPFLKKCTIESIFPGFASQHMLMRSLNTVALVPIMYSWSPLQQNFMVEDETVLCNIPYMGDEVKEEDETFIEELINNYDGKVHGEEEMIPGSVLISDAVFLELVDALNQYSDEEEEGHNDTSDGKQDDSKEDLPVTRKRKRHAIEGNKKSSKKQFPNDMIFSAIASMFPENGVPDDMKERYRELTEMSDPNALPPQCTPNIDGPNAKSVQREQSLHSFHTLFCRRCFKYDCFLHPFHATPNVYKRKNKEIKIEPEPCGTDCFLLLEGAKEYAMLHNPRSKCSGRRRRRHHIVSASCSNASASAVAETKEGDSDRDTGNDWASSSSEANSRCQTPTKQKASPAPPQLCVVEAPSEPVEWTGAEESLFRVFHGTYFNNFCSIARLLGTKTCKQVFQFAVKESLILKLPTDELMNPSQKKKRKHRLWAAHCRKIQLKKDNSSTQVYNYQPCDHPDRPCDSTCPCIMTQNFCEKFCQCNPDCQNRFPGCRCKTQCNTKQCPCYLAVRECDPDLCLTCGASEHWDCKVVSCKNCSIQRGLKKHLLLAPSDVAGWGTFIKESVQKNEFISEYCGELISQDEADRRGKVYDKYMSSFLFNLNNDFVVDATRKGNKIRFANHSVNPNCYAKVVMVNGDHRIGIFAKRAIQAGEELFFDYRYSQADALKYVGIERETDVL
PRC2-EZH1 (WT EZH1), sequence (O75530 whole entry partner): as the sequence (O75530 whole entry partner) above
PRC2-EZH1 (WT EZH1), sequence (Q15022 whole entry partner): as the sequence (Q15022 whole entry partner) above
PRC2-EZH1 (WT EZH1), sequence (Q09028 whole entry partner): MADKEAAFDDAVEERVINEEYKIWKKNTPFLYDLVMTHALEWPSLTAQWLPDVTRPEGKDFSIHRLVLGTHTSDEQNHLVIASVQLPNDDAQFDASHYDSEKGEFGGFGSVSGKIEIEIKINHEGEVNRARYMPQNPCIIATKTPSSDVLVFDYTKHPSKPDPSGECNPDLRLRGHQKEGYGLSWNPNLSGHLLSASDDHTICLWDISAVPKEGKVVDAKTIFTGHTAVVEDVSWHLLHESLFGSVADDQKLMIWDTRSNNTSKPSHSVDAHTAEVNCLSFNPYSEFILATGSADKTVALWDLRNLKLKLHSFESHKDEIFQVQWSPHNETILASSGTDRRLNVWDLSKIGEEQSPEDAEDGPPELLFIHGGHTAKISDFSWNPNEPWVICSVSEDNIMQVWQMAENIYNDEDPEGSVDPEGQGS
PRC2-EZH1 (WT EZH1), sequence (Q6ZN18 whole entry partner): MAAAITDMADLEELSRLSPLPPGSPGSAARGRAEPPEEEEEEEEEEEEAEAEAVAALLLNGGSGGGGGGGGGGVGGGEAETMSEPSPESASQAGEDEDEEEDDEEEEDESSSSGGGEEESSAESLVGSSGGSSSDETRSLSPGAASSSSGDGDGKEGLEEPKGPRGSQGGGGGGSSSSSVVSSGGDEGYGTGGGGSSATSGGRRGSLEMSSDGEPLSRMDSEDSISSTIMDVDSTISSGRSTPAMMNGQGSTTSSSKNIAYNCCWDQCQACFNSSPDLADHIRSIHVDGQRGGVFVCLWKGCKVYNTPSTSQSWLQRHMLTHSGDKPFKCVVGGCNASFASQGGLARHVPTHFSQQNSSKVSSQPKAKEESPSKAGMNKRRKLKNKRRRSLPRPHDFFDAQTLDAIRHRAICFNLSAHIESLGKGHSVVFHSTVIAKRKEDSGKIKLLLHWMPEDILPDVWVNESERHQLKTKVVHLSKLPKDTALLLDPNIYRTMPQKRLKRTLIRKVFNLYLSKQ

Compound	IC50 [1]	IC50 [2]	IC50 [3]
CCN[C@H]1CC[C@H](C2(C)Oc3c(Br)cc(C(=O)NCc4c(C)cc(C)[nH]c4=O)c(C)c3O2)CC1 (relative stereo) [Example 19, 7-Bromo-N-[(4,6-dimethyl-2-oxo-1,2-dihydropyridin-3-yl)methyl]-2-[trans-4-(ethylamino)cyclohexyl]-2,4-dimethyl-1,3-benzodioxole-5-carboxamide]	28 nM	25 nM	11 nM
CCN(C)[C@H]1CC[C@H](C2(C)Oc3c(Br)cc(C(=O)NCc4c(C)cc(C)[nH]c4=O)c(C)c3O2)CC1 (relative stereo) [Example 20, 7-Bromo-N-[(4,6-dimethyl-2-oxo-1,2-dihydropyridin-3-yl)methyl]-2-[trans-4-[N-ethyl(N-methyl)amino]cyclohexyl]-2,4-dimethyl-1,3-benzodioxole-5-carboxamide]	23 nM	17 nM	2.8 nM
CCN(CC)[C@H]1CC[C@H](C2(C)Oc3c(Br)cc(C(=O)NCc4c(C)cc(C)[nH]c4=O)c(C)c3O2)CC1 (relative stereo) [Example 21, 7-Bromo-2-[trans-4-(diethylamino)cyclohexyl]-N-[(4,6-dimethyl-2-oxo-1,2-dihydropyridin-3-yl)methyl]-2,4-dimethyl-1,3-benzodioxole-5-carboxamide]	60 nM	18 nM	10 nM
Cc1cc(C)c(CNC(=O)c2ccc3c(c2C)OC(C)([C@H]2CC[C@H](N(C)C)CC2)O3)c(=O)[nH]1 (relative stereo) [Example 23, 2-[trans-4-(Dimethylamino)cyclohexyl]-N-[(4,6-dimethyl-2-oxo-1,2-dihydropyridin-3-yl)methyl]-2,4-dimethyl-1,3-benzodioxole-5-carboxamide]	4.1 nM	5.6 nM	2.8 nM
Cc1cc(C)c(CNC(=O)c2cc(Br)c3c(c2C)OC(C)([C@H]2CC[C@H](CN(C)C)CC2)O3)c(=O)[nH]1 (relative stereo) [Example 24, 7-Bromo-2-[trans-4-[(dimethylamino)methyl]cyclohexyl]-N-[(4,6-dimethyl-2-oxo-1,2-dihydropyridin-3-yl)methyl]-2,4-dimethyl-1,3-benzodioxole-5-carboxamide]	140 nM	12 nM	19 nM
Cc1cc(C)c(CNC(=O)c2cc(Br)c3c(c2C)OC(C)(C[C@H]2CC[C@@H](N(C)C)CC2)O3)c(=O)[nH]1 (relative stereo) [Example 27, 7-Bromo-2-[[cis-4-(dimethylamino)cyclohexyl]methyl]-N-[(4,6-dimethyl-2-oxo-1,2-dihydropyridin-3-yl)methyl]-2,4-dimethyl-1,3-benzodioxole-5-carboxamide]	23 nM	22 nM	3.8 nM
Cc1cc(C)c(CNC(=O)c2cc(Br)c3c(c2C)OC(C)(C[C@H]2CC[C@H](N(C)C)CC2)O3)c(=O)[nH]1 (relative stereo) [Example 28, 7-Bromo-2-[[trans-4-(dimethylamino)cyclohexyl]methyl]-N-[(4,6-dimethyl-2-oxo-1,2-dihydropyridin-3-yl)methyl]-2,4-dimethyl-1,3-benzodioxole-5-carboxamide]	78 nM	20 nM	14 nM
CN[C@H]1CC[C@H](C2(C)Oc3c(Cl)cc(C(=O)NCc4c(C)cc(C)[nH]c4=O)c(C)c3O2)CC1 (relative stereo) [Example 32, 7-Chloro-N-[(4,6-dimethyl-2-oxo-1,2-dihydropyridin-3-yl)methyl]-2,4-dimethyl-2-[trans-4-(methylamino)cyclohexyl]-1,3-benzodioxole-5-carboxamide]	30 nM	17 nM	4.8 nM
Cc1cc(C)c(CNC(=O)c2cc(Cl)c3c(c2C)OC(C)([C@H]2CC[C@H](N(C)C=O)CC2)O3)c(=O)[nH]1 (relative stereo) [Example 33, 7-Chloro-N-[(4,6-dimethyl-2-oxo-1,2-dihydropyridin-3-yl)methyl]-2-[trans-4-[formyl(methyl)amino]cyclohexyl]-2,4-dimethyl-1,3-benzodioxole-5-carboxamide]	260 nM	28 nM	14 nM
COc1cc(C)[nH]c(=O)c1CNC(=O)c1cc(Cl)c2c(c1C)OC(C)([C@H]1CC[C@H](N(C)C)CC1)O2 (relative stereo) [Example 36, 7-Chloro-2-[trans-4-(dimethylamino)cyclohexyl]-N-[(4-methoxy-6-methyl-2-oxo-1,2-dihydropyridin-3-yl)methyl]-2,4-dimethyl-1,3-benzodioxole-5-carboxamide]	13 nM	13 nM	1.6 nM
CCc1cc(C)[nH]c(=O)c1CNC(=O)c1cc(Cl)c2c(c1C)OC(C)([C@H]1CC[C@H](N(C)C)CC1)O2 (relative stereo) [Example 37, 7-Chloro-2-[trans-4-(dimethylamino)cyclohexyl]-N-[(4-ethyl-6-methyl-2-oxo-1,2-dihydropyridin-3-yl)methyl]-2,4-dimethyl-1,3-benzodioxole-5-carboxamide]	28 nM	19 nM	1.6 nM
Cc1cc(C)c(CNC(=O)c2cc(F)c3c(c2C)OC(C)([C@H]2CC[C@H](N(C)C)CC2)O3)c(=O)[nH]1 (relative stereo) [Example 46, 2-[trans-4-(Dimethylamino)cyclohexyl]-N-[(4,6-dimethyl-2-oxo-1,2-dihydropyridin-3-yl)methyl]-7-fluoro-2,4-dimethyl-1,3-benzodioxole-5-carboxamide]	72 nM	6.7 nM	3.4 nM
Cc1cc(C)c(CNC(=O)c2cc(C)c3c(c2C)OC(C)([C@H]2CC[C@H](N(C)C)CC2)O3)c(=O)[nH]1 (relative stereo) [Example 47, 2-[trans-4-(Dimethylamino)cyclohexyl]-N-[(4,6-dimethyl-2-oxo-1,2-dihydropyridin-3-yl)methyl]-2,4,7-trimethyl-1,3-benzodioxole-5-carboxamide]	22 nM	10 nM	1.4 nM
COc1cc(C(=O)NCc2c(C)cc(C)[nH]c2=O)c(C)c2c1OC(C)([C@H]1CC[C@H](N(C)C)CC1)O2 (relative stereo) [Example 50, 2-[trans-4-(Dimethylamino)cyclohexyl]-N-[(4,6-dimethyl-2-oxo-1,2-dihydropyridin-3-yl)methyl]-7-methoxy-2,4-dimethyl-1,3-benzodioxole-5-carboxamide]	53 nM	20 nM	7.1 nM
Cc1cc(C)c(CNC(=O)c2cc(Cl)c3c(c2Cl)OC(C)([C@H]2CC[C@H](N(C)C)CC2)O3)c(=O)[nH]1 (relative stereo) [Example 53, 4,7-Dichloro-2-[trans-4-(dimethylamino)cyclohexyl]-N-[(4,6-dimethyl-2-oxo-1,2-dihydropyridin-3-yl)methyl]-2-methyl-1,3-benzodioxole-5-carboxamide]	26 nM	13 nM	0.63 nM
Cc1cc(C)c(CNC(=O)c2cc(C3=CCCC3)c3c(c2C)OC(C)([C@H]2CC[C@H](N(C)C)CC2)O3)c(=O)[nH]1 (relative stereo) [Example 58, 7-(Cyclopenten-1-yl)-2-[trans-4-(dimethylamino)cyclohexyl]-N-[(4,6-dimethyl-2-oxo-1,2-dihydropyridin-3-yl)methyl]-2,4-dimethyl-1,3-benzodioxole-5-carboxamide]	4.4 nM	10 nM	2.9 nM
Cc1cc(C)c(CNC(=O)c2cc(-c3ccccc3)c3c(c2C)OC(C)([C@H]2CC[C@H](N(C)C)CC2)O3)c(=O)[nH]1 (relative stereo) [Example 59, 2-[trans-4-(Dimethylamino)cyclohexyl]-N-[(4,6-dimethyl-2-oxo-1,2-dihydropyridin-3-yl)methyl]-2,4-dimethyl-7-phenyl-1,3-benzodioxole-5-carboxamide]	5.7 nM	8.7 nM	1.8 nM
Cc1cc(C)c(CNC(=O)c2cc(C3=CCCCC3)c3c(c2C)OC(C)([C@H]2CC[C@H](N(C)C)CC2)O3)c(=O)[nH]1 (relative stereo) [Example 60, 7-(Cyclohexen-1-yl)-2-[trans-4-(dimethylamino)cyclohexyl]-N-[(4,6-dimethyl-2-oxo-1,2-dihydropyridin-3-yl)methyl]-2,4-dimethyl-1,3-benzodioxole-5-carboxamide]	7.3 nM	14 nM	3.7 nM
CCN1CCN(c2ccc(-c3cc(C(=O)NCc4c(C)cc(C)[nH]c4=O)c(C)c4c3OC(C)([C@H]3CC[C@H](N(C)C)CC3)O4)cn2)CC1 (relative stereo) [Example 61, 2-[trans-4-(Dimethylamino)cyclohexyl]-N-[(4,6-dimethyl-2-oxo-1,2-dihydropyridin-3-yl)methyl]-7-[6-(4-ethylpiperazin-1-yl)-3-pyridyl]-2,4-dimethyl-1,3-benzodioxole-5-carboxamide]	8 nM	21 nM	10 nM
Cc1cc(C)c(CNC(=O)c2cc(C3=CCOCC3)c3c(c2C)OC(C)([C@H]2CC[C@H](N(C)C)CC2)O3)c(=O)[nH]1 (relative stereo) [Example 62, 7-(3,6-Dihydro-2H-pyran-4-yl)-2-[trans-4-(dimethylamino)cyclohexyl]-N-[(4,6-dimethyl-2-oxo-1,2-dihydropyridin-3-yl)methyl]-2,4-dimethyl-1,3-benzodioxole-5-carboxamide]	11 nM	6.6 nM	5.5 nM
Cc1cc(C)c(CNC(=O)c2cc(-c3ccc(CN4CCOCC4)nc3)c3c(c2C)OC(C)([C@H]2CC[C@H](N(C)C)CC2)O3)c(=O)[nH]1 (relative stereo) [Example 63, 2-[trans-4-(Dimethylamino)cyclohexyl]-N-[(4,6-dimethyl-2-oxo-1,2-dihydropyridin-3-yl)methyl]-2,4-dimethyl-7-[6-(morpholinomethyl)-3-pyridyl]-1,3-benzodioxole-5-carboxamide]	17 nM	22 nM	13 nM
